Data published in PMC8535490, “Biotransformation of Flavonoids Improves Antimicrobial and Anti-Breast Cancer Activities In Vitro” (Foods, 2021).
Converted amounts (≈) assume the structure as drawn. Where two headings read alike, the source gives them in different places.

Experiments:
[1] = test system: MCF-7 human breast cancer cells; assay: Cytotoxicity, methylene blue assay; type: cell-based; conditions: at a concentration corresponding to the IC50 (hesperetin 150 μM), 24 h
Experimental: (§1) Analysis of the antiproliferative activity of the test compounds was performed according to Zhu et al., with some modifications. MCF-7 human breast cancer cells were provided by the Cell Resource Center of the Chinese Academy of Sciences (Shanghai, China). Cell proliferation and cytotoxicity of anticancer activity were assessed using the methylene blue assay. For cell proliferation and cytotoxicity, MCF-7 cells were culture in a 96-well plate at 1.5 × 10^5 cells/well and at 3 × 10^5 cells/well, respectively. Various concentrations (75–400 µM) of the test samples were added to a growth medium containing MCF-7 cells followed by cultivation for […]. Following incubation for 72 h, cell proliferation was measured with an absorbance of 570 nm using a microplate reader (Bio-Rad, Hercules, MA, USA), while cell cytotoxicity measurement was carried out 24 h after incubation.

E. coli ATCC25922 = assay: Antimicrobial activity assay (broth culture in 96-well plate, CCK8 staining, MIC/MBC); type: cell-based, Escherichia coli; conditions: for Growth inhibition / MBC / MIC: E. coli ATCC25922; for MBC / MIC: Escherichia coli, tested at 15–400 µM
Experimental: (§2) Antimicrobial biological activities of the tested compounds were evaluated as Zhong et al., with some modifications. Gram-positive and -negative bacteria and fungi (S. aureus ATCC6538, E. coli ATCC25922, and C. albicans SC5314) were selected for evaluation in the present study. S. aureus ATCC6538 and E. coli ATCC25922 were cultured with Luria-Bertani medium, while for C. albicans SC5314, potato dextrose broth medium was used for 24 h at 37 °C (bacterial suspension in 1 × 10^6 CFU/mL). […] Each strain was, respectively, transferred into a 96-well plate at 100 µL/well (90 µL bacterial suspension and 10 µL sample solution) after adding different concentrations of samples, followed by incubation for 12–16 h. The optical density at 650 nm (OD650) of C. albicans SC5314 was measured after TTC staining, while S. aureus ATCC6538 and E. coli ATCC25922 were stained for CCK8 before measurement.

C. albicans SC5314 = assay: Antimicrobial activity assay (broth culture in 96-well plate, TTC staining, MIC/MBC); type: cell-based, Candida albicans; conditions: for MBC / MIC: tested at 15–400 µM
Experimental: as §2

[2] = test system: MCF-7 human breast cancer cells; assay: Antiproliferative activity, methylene blue assay; type: cell-based; conditions: MCF-7 cells; for IC50: 72 h, mean ± SD, n = 3; for Increase in antiproliferation potency compared to unmethylated substrate: ratio of IC50 values
Experimental: as §1

S. aureus ATCC6538 = assay: Antimicrobial activity assay (broth culture in 96-well plate, CCK8 staining, MIC/MBC); type: cell-based, Staphylococcus aureus; conditions: for Growth inhibition: S. aureus ATCC 6538; for MBC / MIC: S. aureus ATCC6538, tested at 15–400 µM
Experimental: as §2

[3] = Candida albicans, C. albicans SC5314
[4] = Candida albicans, C. albicans SC5314, read-out: MBC

Row | Molecule | Cytotoxicity on MCF-7 cells [1] | Growth inhibition (E. coli ATCC25922) | Increase in antiproliferation potency compared to unmethylated substrate [2] | Growth inhibition (S. aureus ATCC6538) | MIC (C. albicans SC5314; [3]) [µM] | MBC (C. albicans SC5314; [4]) [µM] | IC50 ([2]; Homo sapiens, MCF7) [µM] | further results
1 | 7-methoxy-naringenin [Compound 2a] | highest | failed to inhibit the growth | 1.34 fold | failed to inhibit the growth | – | – | – | Cytotoxicity on MCF-7 cells ([1]; listed as 7-methoxynaringenin): Slight cytotoxicity; Increase of highest antimicrobial activity compared to naringenin (C. albicans SC5314; C. albicans SC5314, highest activity): 182.12%; MBC (C. albicans SC5314; C. albicans SC5314): >400 >400 μM; MIC (C. albicans SC5314; C. albicans SC5314): 75 µM; IC50 [2]: 93.6 ± 1.06 µM
2 | O=C1C[C@@H](c2ccc(O)cc2)Oc2cc(O)ccc21 [Compound 1, liquiritigenin, reference compound] | Slight cytotoxicity | – | – | – | 25 (≈ 6.41 µg/mL) | > 400 | 101 ± 1.83 | MBC (E. coli ATCC25922): > 400 µM; MIC (E. coli ATCC25922): 25 µM (≈ 6.41 µg/mL); MBC (S. aureus ATCC6538; Staphylococcus aureus): > 400 µM; MIC (S. aureus ATCC6538; Staphylococcus aureus): 75 µM (≈ 19.2 µg/mL)
3 | COc1ccc2c(c1)O[C@H](c1ccc(O)cc1)CC2=O [Compound 1a, 7-methoxy-liquiritigenin] | Slight cytotoxicity | – | 8.99 fold | – | 25 (≈ 6.76 µg/mL) | > 400 | 11.2 ± 0.6 | Increase of antimicrobial activity compared to liquiritigenin (E. coli ATCC25922; E. coli ATCC25922, 400 μM): 54.41%; Increase of inhibitory effect compared to unmethylated counterpart (E. coli ATCC25922; E. coli ATCC25922, 400 μM): 0.54 fold; MBC (E. coli ATCC25922): > 400 µM; MIC (E. coli ATCC25922): 15 µM (≈ 4.05 µg/mL); Increase (MIC) compared to the unmethylated substrate (C. albicans SC5314; C. albicans SC5314): 3 fold; Increase of antimicrobial activity compared to liquiritigenin (C. albicans SC5314; C. albicans SC5314, 200 μM): 765.64%; Increase of inhibitory effect compared to unmethylated counterpart (C. albicans SC5314; C. albicans SC5314, 200 μM): 7.65 fold; MIC (C. albicans SC5314; C. albicans SC5314): 25 µM (≈ 6.76 µg/mL); Increase of antimicrobial activity compared to liquiritigenin (S. aureus ATCC6538; S. aureus ATCC6538, 250 μM): 148.77%; Increase of inhibitory effect compared to unmethylated counterpart (S. aureus ATCC6538; S. aureus ATCC6538, 250 μM): 1.49 fold; MIC (S. aureus ATCC6538): 75 µM (≈ 20.3 µg/mL); MBC (S. aureus ATCC6538; Staphylococcus aureus): > 400 µM; MIC (S. aureus ATCC6538; Staphylococcus aureus): 75 µM (≈ 20.3 µg/mL)
4 | O=C1C[C@@H](c2ccc(O)cc2)Oc2cc(O)cc(O)c21 [Compound 2, naringenin, reference compound] | Slight cytotoxicity | failed to inhibit the growth | – | failed to inhibit the growth | 75 (≈ 20.4 µg/mL) | > 400 | 126 ± 2.76 | –
5 | COc1ccc([C@@H]2CC(=O)c3c(O)cc(O)cc3O2)cc1O [Compound 3, hesperetin, reference compound] | Slight cytotoxicity | failed to inhibit the growth | – | failed to inhibit the growth | 75 (≈ 22.7 µg/mL) | > 400 | > 150 | –
6 | COc1ccc([C@@H]2CC(=O)c3c(O)cc(O)cc3O2)cc1OC [Compound 3a, 3’-methoxy-hesperetin] | Slight cytotoxicity | failed to inhibit the growth | more than 14.35 fold | failed to inhibit the growth | 50 (≈ 15.8 µg/mL) | > 400 | 10.5 ± 0.45 | –
7 | COc1cc(O)c2c(c1)O[C@H](c1ccc(OC)c(O)c1)CC2=O [Compound 3b, 7-methoxy-hesperetin] | lowest | failed to inhibit the growth | – | failed to inhibit the growth | 25 (≈ 7.91 µg/mL) | > 400 | 30.7 ± 0.72 | Cytotoxicity on MCF-7 cells ([1]; listed as 7-methoxyhesperetin): No cytotoxicity
8 | COc1cc(O)c2c(c1)O[C@H](c1ccc(OC)c(OC)c1)CC2=O [Compound 3c, 7,3’-dimethoxy-hesperetin] | Slight cytotoxicity | failed to inhibit the growth | – | failed to inhibit the growth | 75 (≈ 24.8 µg/mL) | > 400 | 31 ± 1.44 | –
